Measurements reported in PMC3897731, “Antimicrobial Properties and Membrane-Active Mechanism of a Potential α-Helical Antimicrobial Derived from Cathelicidin PMAP-36” (PLoS ONE, 2014).
Ends that are not written are not given here.

Assays:
[1] = tested on: gram-negative and gram-positive bacteria (six strains tested); details: for GM, geometric mean of the MICs: all tested strains, >128 µM counted as 256 µM
Procedure: (§1) The antimicrobial activity of each peptide was determined against the following bacteria strains: Escherichia coli ATCC 25922, Escherichia coli UB1005, Salmonella enterica serovar typhimurium C77-31, Staphylococcus aureus ATCC 29213, Staphylococcus aureus ATCC 25923 and Staphylococcus epidermidis ATCC 12228. The minimal inhibitory concentrations (MICs) of the peptides were measured according to a modified version of the National Committee for Clinical Laboratory Standards (NCCLS) broth microdilution method as described previously. Briefly, mid-logarithmic phase bacteria were cultured in Mueller-Hinton (MH) broth and then diluted to 1×10^5 CFU/ml. Equal volumes (50 µl) of microorganism solution and 2-fold serially diluted different concentrations (0.25–128 µM) peptides in 0.01% (v/v) acetic acid and 0.2% (w/v) bovine serum albumin (BSA, Sigma) were added to each well of the sterile 96-well plate. After incubation for 24 h at 37°C, MICs were determined as the lowest concentration of peptides that prevented visible turbidity by visual inspection. The tests were performed in triplicate. Cultures without peptides and uninoculated MH broth were employed as positive and negative controls, respectively. In addition, the salt stability of the peptides was tested in the MIC assay mentioned above.

[2] = tested on: Escherichia coli ATCC 25922; details: ATCC 25922, 24 h
Procedure: as §1

Escherichia coli UB1005 = details: UB1005, 24 h
Procedure: as §1

[3] = tested on: Staphylococcus epidermidis ATCC 12228; details: ATCC 12228, 24 h
Procedure: as §1

[4] = tested on: Staphylococcus aureus ATCC 25923; details: ATCC 25923, 24 h
Procedure: as §1

[5] = tested on: Staphylococcus aureus ATCC 29213; details: ATCC 29213, 24 h
Procedure: as §1

[6] = tested on: Salmonella enterica serovar typhimurium C77-31; details: serovar typhimurium C77-31, 24 h
Procedure: as §1

human erythrocytes = test: Hemolytic activity; type: cell-based; details: for Hemolytic activity (in words): 1 h at 37°C in PBS, absorbance at 570 nm, up to 128 µM, three independent experiments; for Concentration causing 50% hemolysis: 1 h at 37°C, highest concentration 128 µM
Procedure: The hemolytic activity of the peptides was measured as the amount of hemoglobin released by the lysis of human erythrocytes. Briefly, 1 ml of fresh human blood cells (hRBCs) obtained from a healthy donor (Na Dong, Harbin, China) in a polycarbonate tube containing heparin was centrifuged at 1,000×g for 5 min at 4°C [16]. The experimental protocol was reviewed and approved by the ethics committee of the Northeast Agricultural University Hospital. The erythrocytes obtained were washed three times with phosphate-buffered saline (PBS) solution (pH 7.2) and resuspended in PBS. A 50 µl volume of the erythrocyte solution was incubated with 50 µl of various peptides dissolved in PBS for 1 h at 37°C. Intact erythrocytes were pelleted by centrifugation at 1,000×g for 5 min at 4°C, and the supernatant was transferred to a new 96-well plate. The release of hemoglobin was monitored by measuring the absorbance at 570 nm. As negative and positive controls, hRBCs in PBS without the peptide and 0.1% Triton X-100 were employed, respectively.

[7] = strain not given; for MIC, Without treatment: no salt added

Substance | GM, geometric mean of the MICs [1] [µM] | MIC E. coli ATCC25922 [2] [µM] | MIC E. coli UB 1005 (Escherichia coli UB1005) [µM] | MIC S. epidermidis ATCC 12228 [3] [µM] | MIC S. aureus ATCC 25923 [4] [µM] | MIC S. aureus ATCC 29213 [5] [µM] | MIC S. typhimurium C77-31 [6] [µM] | Hemolytic activity (in words) (human erythrocytes) | Antimicrobial activity (in words) ([1]; tested microorganisms, up to 128 µM) | Concentration causing 50% hemolysis (human erythrocytes) [µM] | MIC, CaCl2 (1 mM) [7] [µM] | MIC, MgCl2 (1 mM) [7] [µM] | MIC, NaCl (50 mM) [7] [µM] | MIC, NaCl (100 mM) [7] [µM] | MIC, NaCl (150 mM) [7] [µM] | MIC, Without treatment [7] [µM]
GRFRRLRKKTRK-NH2 [GK12] | 203.19 | 128 | 128 | >128 | >128 | >128 | >128 | no hemolytic activity | – | – | – | – | – | – | – | –
GRFRRLRKKTRKRLKKIGKV | – | – | – | – | – | – | – | – | extremely low antimicrobial activity | – | – | – | – | – | – | –
GRFRRLRKKTRKRLKKIGKVLKAI-NH2 [GI24-W23A] | 71.84 | 16 | 16 | 128 | 128 | 128 | >128 | – | – | – | – | – | – | – | – | –
GRFRRLRKKTRKRLKKIGKVLKKI-NH2 [GI24-W23K] | 45.25 | 32 | 16 | 32 | 64 | 32 | >128 | no hemolytic activity | – | – | – | – | – | – | – | –
GRFRRLRKKTRKRLKKIGKVLKLI-NH2 [GI24-W23L] | 2.52 | 1 | 2 | 4 | 4 | 4 | 2 | slightly hemolytic activity | – | – | – | – | – | – | – | –
GRFRRLRKKTRKRLKKIGKVLKWI-NH2 [GI24] | 1.78 | 1 | 2 | 2 | 4 | 2 | 1 | slightly hemolytic activity | – | > 128 | 1 | 2 | 1 | 2 | 2 | 1
GRFRRLRKKTRKRLKKIGKVLKWIPPIVGSIPLGCG-NH2 [PMAP-36, porcine myeloid antimicrobial peptide-36] | 1.59 | 1 | 2 | 2 | 2 | 2 | 1 | slightly hemolytic activity | – | – | 1 | 2 | 1 | 1 | 2 | 1
GVFRRLRKVTRKVLKKIGKVLKWI-NH2 [GI24-V3] | 3.56 | 4 | 4 | 2 | 4 | 4 | 4 | relatively high hemolytic activity | – | 128 | – | – | – | – | – | –
GVFRVLRKVTRVVLKVIGKVLKWI-NH2 [GI24-V6] | 2.52 | 2 | 4 | 2 | 2 | 2 | 4 | relatively high hemolytic activity | – | 8 | – | – | – | – | – | –
PPIVGSIPLGCG-NH2 [PG12] | 256 | >128 | >128 | >128 | >128 | >128 | >128 | no hemolytic activity | – | – | – | – | – | – | – | –
RLKKIGKVLKWI-NH2 [RI12] | 28.51 | 8 | 16 | 64 | 128 | 64 | 8 | no hemolytic activity | – | – | – | – | – | – | – | –
